In brackets after ≈: the same amount, converted by molar mass. Where two headings read alike, the source gives them in different places.
Key:
[1] = test system: gastric erosions induced by ethanol containing hydrochloric acid; experiment: Test with ethanol containing hydrochloric acid (gastric erosions); assay type: in vivo, rat; details: for Inhibition of the erosion index, relative activity: ED50 of cetraxate divided by ED50 of compound tested; for ED50: po, rat, p.o., HCl/absolute ethanol 1 to 50; for Inhibition of the erosion frequency, relative activity: related to cetraxate
Protocol: (§1) Rats of both sexes weighing 200 to 250 g, each previously starved for 24 hours, were used in this experiment. The lesions of gastric mucosa were induced by the oral administration of absolute ethanol in a dose of 1 ml/animal. After one hour following the administration, the animals were killed by an overdose of ether, the stomach was excised and the alterations of gastric mucosa were examined. The lengths of the erosions were measured and summarized (expressed in mm) for each stomach to obtain the erosion index by calculating the average value of the group. The inhibition was calculated in percentage by comparing the value of the group treated with ethanol to that of the control group treated only with the vehicle. Various doses of the compounds to be tested were administered, perorally, in a volume of 5 ml/kg using a pretreatment time of 60 minutes. Eight rats were used for each dose. /A. Robert, Gastroenterology 77, 761-767 (1979)/.
The principle of the method consists in that, simultaneously with the administration of absolute ethanol, hydrochloric acid is introduced to the stomach. Thus, the influence on systemic gastric acid inhibition action can be eliminated by the presence of the exogenous acid.
The reagent used in this test was a mixture of concentrated aqueous hydrochloric acid and absolute ethanol in a mass ratio of 1 to 50 in accordance with the dilution ratio used by Yamazaki et al., see Japan J. Pharmacol., 55, 415-424 (1991). Otherwise, the experiment was performed as described under test 2.1., however, in addition to the erosion index calculated from the lengths of the erosions in mm, the ratio of occurence of animals showing at least one gastric erosion within a test group, i.e. the erosion frequency, was also evaluated.

[2] = test system: Helicobacter pylori; experiment: Antibacterial effect on Helicobacter pylori (MIC, blood agar); assay type: cell-based; details: Helicobacter pylori, 72 h
Protocol: Helicobacter pylori strains used in these experiments were obtained from the biopsial samples of the stomachs of patients suffering from ulcerative diseases of the gastrointestinal system. From the pure culture of isolates a thick suspension was prepared with cysteine-inositol solution suitable for lyophilisation, and the suspension obtained was maintained in cold-resistant plastic ampoules in a deep-freezing chamber at a temperature of about -196 ° C. For the determination of the inhibitory effect of the compounds tested on Helicobacter pylori, blood agar containing 10 mg/liter of vancomycin and 25 mg/liter of amphotericin B was used /C. A. M. McNulty and I. C. Dent: Susceptibility of clinical isolates of Campylobacter pylori to twenty one antimicrobial agents. Book of Abstracts, 4th European Congress of Clinical Microbiology, Nice (1989)/.
The plates containing the strains were cultivated at 37° C. for 72 hours under a gaseous atmosphere containing 10 per cent of carbon dioxide and 5 per cent of oxygen /D. M. Jones et al., J. Clin. Pathol., 37, 1002 (1984)/.
The culture media were inoculated by diluting the broth culture of the strains grown overnight or with a suspension prepared from a culture obtained on a solid medium. About 10^5 of germs were applied to the surface of each plate.
A series of dilution were prepared from the compound to be-tested. The MIC (minimal inhibiting concentration) value of the compounds tested was considered to be the lowest concentration inhibiting the growth of the test organism completely.

[3] = test system: gastric mucosa lesions induced by absolute ethanol; experiment: Gastroprotective activity, test with absolute ethanol (gastric mucosa erosions); assay type: in vivo, rat; details: for Relative activity related to the inhibition of the free acid: ED50 of gastric acid inhibition (Shay) related to ED50 of inhibition of gastric erosion; for ED50: po; for gastroprotective activity (in words): test with absolute ethanol
Protocol: as §1
^x Relative activity = ED50 value of the gastric acid inhibition
related to the ED50 value of the inhibition of the gastric erosion.

[4] = in vivo; details: mouse, po, NMRI mice, 7 days, "higher than" = highest dose administered without any death
Protocol: The acute toxicity was determined on NMRI strain mice of both sexes weighing 20 to 25 g each by using 6 animals for each dose. The compounds to be tested were administered perorally in a volume of 20 ml/kg, the highest dose applied was 1000 mg/kg. After the administration the animals were kept under usual laboratory conditions for 7 days.
The data given as "higher than" a certain value mean the highest dose administered without noting any death of animals.

[5] = erosion frequency, read-out: Inhibition of the erosion frequency, ED50 p.o.
[6] = erosion index, read-out: Inhibition of the erosion index, ED50 p.o.
[7] = rat, 60 min pretreatment, absolute ethanol 1 ml/animal, erosion index

Molecule | Inhibition of the erosion index, relative activity ([1]; erosion index) | ED50 [1, 5] | ED50 [1, 6] | Inhibition of the erosion frequency, relative activity ([1]; erosion frequency) | MIC ([2]; strain 867/90) | MIC ([2]; strain 1596) | MIC ([2]; strain 3842) | MIC ([2]; strain 6656) | MIC ([2]; strain 6709) | Relative activity related to the inhibition of the free acid [3] | ED50 [3, 7] | LD50 at 168 h [4] | gastroprotective activity (in words) [3] | Gastroprotective activity: test with absolute ethanol, ED50 p.o. ([3]; rat, p.o., 60 min pretreatment, absolute ethanol 1 ml/animal, erosion index)
CN(CC(O)CO/N=C1\CCCC\C1=C/c1ccc(Cl)cc1)C1CCCCC1 (racemic) [Compound D, (R,S)-2-(E)-(4-chlorophenylmethylene)-1-(E)-[3'-(N-methyl-N-cyclohexylamino)-2'-hydroxypropoxyimino]cyclohexane] | 4.2 | 8.3 mg/kg | 5.2 mg/kg | 22.8 | 15.6 µg/mL (≈ 38.5 µM) | 15.6 µg/mL (≈ 38.5 µM) | 15.6 µg/mL (≈ 38.5 µM) | 15.6 µg/mL (≈ 38.5 µM) | 15.6 µg/mL (≈ 38.5 µM) | 32.3 | 2.6 mg/kg | > 1000 mg/kg |  | 
CCCCCCNCC(O)CO/N=C1\CCCC\C1=C/c1ccc(Cl)cc1 (racemic) [Compound F, (R,S)-2-(E)-(4-chlorophenylmethylene)-1-(E)-[(3-hexylamino-2-hydroxypropoxy)imino]-cyclohexane] |  |  | 7.2 mg/kg |  |  |  |  |  |  |  |  | > 1000 mg/kg |  | 
CCCCCCNCC(O)CO/N=C1\CCCC\C1=C/c1ccccc1 (racemic) [Compound C, (R,S)-2-(E)-(phenylmethylene)-1-(E)-[(3-hexylamino-2-hydroxypropoxy)imino]cyclohexane] |  |  | 11.5 mg/kg |  | 3.9 µg/mL (≈ 10.9 µM) | 7.8 µg/mL (≈ 21.8 µM) | 3.9 µg/mL (≈ 10.9 µM) | 3.9 µg/mL (≈ 10.9 µM) | 3.9 µg/mL (≈ 10.9 µM) |  |  | > 1000 mg/kg |  | 
CN1CCN(CC(=O)N2c3ccccc3C(=O)Nc3cccnc32)CC1 [pirenzepine, reference compound] |  |  |  |  |  |  |  |  |  |  |  |  | low gastroprotective action in a rather high dose | 
beta-D-fructofuranosyl alpha-D-glucopyranoside hydrogen sulfate basic aluminium salt [sucralfate, reference compound] |  |  |  |  |  |  |  |  |  |  |  |  | nearly identical activity | 69.0 mg/kg
CCCCNCC(O)CO/N=C1\CCCC\C1=C/c1ccc(Cl)cc1 (racemic) [Compound L, (R,S)-2-(E)-(4-chlorophenylmethylene)-1-(E)-[(3-butylamino-2-hydroxypropoxy)imino]cyclohexane] | 2.2 | 30 to 60 mg/kg | 9.8 mg/kg | 3-6 |  |  |  |  |  | 18.3 | 7.6 mg/kg | 1300 mg/kg |  | 
C=CCNCC(O)CO/N=C1\CCCC\C1=C/c1ccc(Cl)cc1 (racemic) [Compound I, (R,S)-2-(E)-(4-chlorophenylmethylene)-1-(E)-[(3-propenylamino-2-hydroxypropoxy)imino]cyclohexane] | 2.6 | 39.2 mg/kg | 8.6 mg/kg | 4.8 |  |  |  |  |  | higher than 10.0 | 8.4 mg/kg |  |  | 
CC(C)NCC(O)CO/N=C1\CCCC\C1=C/c1ccc(Br)cc1 (racemic) [Compound K] | 1.9 | 15 to 30 mg/kg | 11.4 mg/kg | 6-12 |  |  |  |  |  | about 17.9 | 6.7 mg/kg |  |  | 
CC(C)N(CC(O)CO/N=C1\CCCC\C1=C/c1ccc(Cl)cc1)C(C)C (racemic) [Compound J, (R,S)-2-(E)-(4-chlorophenylmethylene)-1-(E)-[(3-diisopropylamino-2-hydroxypropoxy)imino]cyclohexane] | 3.7 | 19.1 mg/kg | 5.9 mg/kg | 9.9 |  |  |  |  |  | about 25.0 | 7 mg/kg |  |  | 
CCCCNCC(O)CO/N=C1\CCCC\C1=C/c1ccc(Cl)c(Cl)c1 (racemic) [Compound A, (R,S)-2-(E)-(3,4-dichlorophenylmethylene)-1-(E)-[(3-butylamino-2-hydroxypropoxy)imino]cyclohexane] | 3.1 | 18.8 mg/kg | 7.1 mg/kg | 10.1 |  |  |  |  |  | 60.5 | 2 mg/kg | > 1000 mg/kg |  | 
CNC(=NC#N)NCCSCc1nc[nH]c1C [cimetidine, 2-cyano-1-methyl-3-[2-[[(5-methyl-4-imidazolyl)-methyl]thio]ethyl]guanidine, reference compound] |  |  |  |  |  |  |  |  |  |  |  |  | low gastroprotective action in a rather high dose | 
CCCN(CCC)CC(O)CO/N=C1\CCCC\C1=C/c1ccc(Cl)c(Cl)c1 (racemic) [Compound B, (R,S)-2-(E)-(3,4-dichlorophenylmethylene)-1-(E)-[(3-dipropylamino-2-hydroxypropoxy)imino]cyclohexane] | 1.7 | 20.1 mg/kg | 12.7 mg/kg | 6.4 |  |  |  |  |  | 12.5 | 12.6 mg/kg | > 1000 mg/kg |  | 
CN(C)CC(O)CO/N=C1\CCCC\C1=C/c1ccc(Cl)cc1 (racemic) [Compound G, (R,S)-2-(E)-(4-chlorophenylmethylene)-1-(E)-[(3-dimethylamino-2-hydroxypropoxy)imino]cyclohexane] |  |  | 15.8 mg/kg | 3-6 | 31.2 µg/mL (≈ 92.6 µM) | 125 µg/mL (≈ 371 µM) | 62.5 µg/mL (≈ 186 µM) | 31.2 µg/mL (≈ 92.6 µM) | 125 µg/mL (≈ 371 µM) | 60-125 |  |  |  | 
CN(C)CCCNCC(O)CO/N=C1\CCCC\C1=C/c1ccccc1 (racemic) [Compound M, (R,S)-2-(E)-(phenylmethylene)-1-(E)-{[3-(3-dimethylamino-1-propylamino)-2-hydroxypropoxy]imino}cyclohexane] | 1.3 | 30 to 60 mg/kg | 17.5 mg/kg | 3-6 |  |  |  |  |  | about 6.7 | 29.9 mg/kg |  |  | 
COc1ccccc1/C=C1\CCCC\C1=N/OCC(O)CN1CCN(c2ccccc2OC)CC1 (racemic) [Compound H, (R,S)-2-(E)-(2-methoxyphenylmethylene)-1-(E)-{3-[4-(2-methoxyphenyl)-1-piperazinyl]-2-hydroxypropoxyimino}cyclohexane] | 0.4-0.7 | > 60 mg/kg | 30 to 60 mg/kg | < 3 |  |  |  |  |  | higher than 20.0 | 9.5 mg/kg |  |  | 
COc1ccc2nc([S+]([O-])Cc3ncc(C)c(OC)c3C)[nH]c2c1 (centres unmarked) [omeprazole, 5-methoxy-2-[[(4-methoxy-3,5-dimethyl-2-pyridyl)methyl]sulfinyl]benzimidazole, reference compound] |  |  |  |  |  |  |  |  |  |  |  | > 4000 mg/kg | low gastroprotective action in a rather high dose | 
OC(CNC1CCCCC1)CO/N=C1\CCCC\C1=C/c1ccc(Cl)cc1 (racemic) [Compound E, (R,S)-2-(E)-(4-chlorophenylmethylene)-1-(E)-[(3-cyclohexylamino-2-hydroxypropoxy)imino]cyclohexane] |  |  | 10.3 mg/kg | 3-6 |  |  |  |  |  |  |  | > 1000 mg/kg |  | 

Reference: patent publication US5597822A, “Pharmaceutical compositions for the prevention and/or treatment a gastrointestinal diseases” (Egis Pharmaceutical, priority 1993, dated 1997)
